PubChem BioAssay AID248 (DTP/NCI, 2004)
“And” between values parts separate entries of the source, which are not always exact repeats. Equal values may be shown once. Inconclusive results and toxic doses are left out. Rule as the data show it: active = T/C of 150% or more; inactive = T/C below 125%.

Tested on: L1210 leukemia ip in BDF1 mice, survival T/C
Test: NCI In Vivo Anticancer Drug Screen. Data for tumor model L1210 Leukemia (intraperitoneal) in B6D2F1 (BDF1) mice
Settings: endpoint: mean survival time, higher = longer survival
Summary of the method: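 Tumor was transplanted into mice, which were then dosed with test compound or vehicle alone. Survival was recorded for each group, and the treated figure was expressed relative to the control figure.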

[1] = dose: 100.0 mg/kg/injection, schedule: Q04DX003 (ip), vehicle: saline with Tween-80
[2] = dose: 200.0 mg/kg/injection, schedule: Q04DX003 (ip), vehicle: saline with Tween-80
[3] = dose: 50.0 mg/kg/injection, schedule: Q01DX001 (ip), vehicle: saline
[4] = dose: 100.0 mg/kg/injection, schedule: Q01DX001 (ip), vehicle: saline
[5] = dose: 200.0 mg/kg/injection, schedule: Q01DX001 (ip), vehicle: saline
[6] = dose: 400.0 mg/kg/injection, schedule: Q01DX001 (ip), vehicle: saline
[7] = dose: 400.0 mg/kg/injection, schedule: Q04DX003 (ip), vehicle: saline with Tween-80
[8] = dose: 100.0 mg/kg/injection, schedule: Q04DX002 (ip), vehicle: Klucel (hydroxypropylcellulose) (HPC)
[9] = dose: 200.0 mg/kg/injection, schedule: Q04DX002 (ip), vehicle: Klucel (hydroxypropylcellulose) (HPC)
[10] = dose: 400.0 mg/kg/injection, schedule: Q04DX002 (ip), vehicle: Klucel (hydroxypropylcellulose) (HPC)
[11] = dose: 100.0 mg/kg/injection, schedule: Q01DX009 (ip), vehicle: saline with Tween-80
[12] = dose: 100.0 mg/kg/injection, schedule: Q04DX002 (ip), vehicle: saline with Tween-80
[13] = dose: 200.0 mg/kg/injection, schedule: Q01DX009 (ip), vehicle: saline with Tween-80
[14] = dose: 200.0 mg/kg/injection, schedule: Q04DX002 (ip), vehicle: saline with Tween-80
[15] = dose: 400.0 mg/kg/injection, schedule: Q01DX009 (ip), vehicle: saline with Tween-80
[16] = dose: 400.0 mg/kg/injection, schedule: Q04DX002 (ip), vehicle: saline with Tween-80
[17] = dose: 100.0 mg/kg/injection, schedule: Q01DX009 (ip), vehicle: Klucel (hydroxypropylcellulose) (HPC)
[18] = dose: 200.0 mg/kg/injection, schedule: Q01DX009 (ip), vehicle: Klucel (hydroxypropylcellulose) (HPC)
[19] = dose: 6.25 mg/kg/injection, schedule: Q01DX009 (ip), vehicle: saline
[20] = dose: 12.5 mg/kg/injection, schedule: Q01DX009 (ip), vehicle: saline

Measured: T/C

O=Cc1[nH]c(=O)[nH]c(=O)c1Cc1ccc(Cl)cc1
inactive: [1] 98 % of control | [2] 102 % of control

CCCCOC(N)=O
inactive: [3] 105 % of control | [4] 95 % of control | [1] 95 % of control and 100 % of control | [5] 93 % of control | [2] 95 % of control and 97 % of control | [6] 98 % of control | [7] 97 % of control and 102 % of control

COc1ccc(C2Nc3cc(Cl)ccc3NC3=C2C(=O)CC(C)(C)C3)cc1 (stereo unspecified)
inactive: [8] 105 % of control | [9] 94 % of control | [10] 102 % of control

CC[N+](C)(CC)/N=C(\C)c1ccccc1
inactive: [1] 105 % of control

[Co+3].[NH-]CC(=O)[O-].[NH-]CCN(CC[NH-])CC[NH-].[O-][Cl+3]([O-])([O-])O
inactive: [3] 103 % of control | [4] 100 % of control | [5] 103 % of control | [6] 105 % of control

CCC1(c2ccccc2)C(=O)NC(=O)N(Cc2ccccc2)C1=O (stereo unspecified)
inactive: [11] 109 % of control | [12] 89 % of control | [13] 98 % of control | [14] 95 % of control | [15] 98 % of control | [16] 103 % of control

Nc1nc(N)c(CCCOc2ccccc2)c(-c2ccccc2)n1
inactive: [8] 105 % of control | [9] 101 % of control | [10] 101 % of control

Cc1ccc(OC(C)C(=O)O)c(C)c1 (stereo unspecified)
inactive: [8] 104 % of control | [9] 98 % of control | [10] 95 % of control

COc1ccc(C(=O)N/N=C/c2ccccc2OC)cc1
inactive: [17] 92 % of control | [18] 100 % of control | dose: 400.0 mg/kg/injection, schedule: Q01DX009 (ip), vehicle: Klucel (hydroxypropylcellulose) (HPC) 96 % of control

c1ccc(C[N+]23CCC(CC2)CC3)cc1
inactive: dose: 3.13 mg/kg/injection, schedule: Q01DX009 (ip), vehicle: saline 95 % of control | [19] 99 % of control | [20] 101 % of control

CCCCNC(=O)c1n[se]nc1NC(N)=O
inactive: dose: 25.0 mg/kg/injection, schedule: Q01DX Z (ip), vehicle: carboxymethylcellulose (CMC) 91 % of control | dose: 37.5 mg/kg/injection, schedule: Q01DX Z (ip), vehicle: carboxymethylcellulose (CMC) 89 % of control | dose: 50.0 mg/kg/injection, schedule: Q01DX Z (ip), vehicle: carboxymethylcellulose (CMC) 90 % of control

CC(C)(C)C(=O)Nc1ccc(Cl)cc1C(=O)c1ccccc1
inactive: [11] 92 % of control and 110 % of control | [12] 93 % of control and 98 % of control | [13] 96 % of control and 100 % of control | [14] 93 % of control and 107 % of control | [15] 92 % of control and 95 % of control | [16] 107 % of control and 87 % of control

CCCC(C)c1c(N)nc(N)[nH]c1=O (stereo unspecified)
inactive: dose: 80.0 mg/kg/injection, schedule: Q01DX001 (ip), vehicle: Klucel (hydroxypropylcellulose) (HPC) 103 % of control | dose: 160.0 mg/kg/injection, schedule: Q01DX001 (ip), vehicle: Klucel (hydroxypropylcellulose) (HPC) 92 % of control | dose: 320.0 mg/kg/injection, schedule: Q01DX001 (ip), vehicle: Klucel (hydroxypropylcellulose) (HPC) 94 % of control

NC(CSC(c1ccccc1)c1ccccc1)C(=O)O (stereo unspecified)
inactive: dose: 10.0 mg/kg/injection, schedule: Q01DX015 (ip), vehicle: saline 97 % of control | dose: 20.0 mg/kg/injection, schedule: Q01DX015 (ip), vehicle: saline 91 % of control | dose: 40.0 mg/kg/injection, schedule: Q01DX015 (ip), vehicle: saline 95 % of control | dose: 50.0 mg/kg/injection, schedule: Q01DX001 (ip), vehicle: carboxymethylcellulose (CMC) 98 % of control | dose: 79.0 mg/kg/injection, schedule: Q01DX015 (ip), vehicle: saline 92 % of control | dose: 100.0 mg/kg/injection, schedule: Q01DX001 (ip), vehicle: carboxymethylcellulose (CMC) 101 % of control | [4] 101 % of control | dose: 158.0 mg/kg/injection, schedule: Q01DX015 (ip), vehicle: saline 95 % of control | dose: 200.0 mg/kg/injection, schedule: Q01DX001 (ip), vehicle: carboxymethylcellulose (CMC) 87 % of control | [5] 100 % of control | dose: 316.0 mg/kg/injection, schedule: Q01DX015 (ip), vehicle: saline 98 % of control | dose: 400.0 mg/kg/injection, schedule: Q01DX001 (ip), vehicle: carboxymethylcellulose (CMC) 87 % of control | [6] 101 % of control | dose: 632.0 mg/kg/injection, schedule: Q01DX015 (ip), vehicle: saline 97 % of control

COc1ccc2c(c1OC)C1C3CC=CC3C2C2=[N+]1CCc1cc3c(cc12)OCO3 (stereo unspecified)
inactive: dose: 1.56 mg/kg/injection, schedule: Q01DX009 (ip), vehicle: saline 102 % of control | dose: 3.12 mg/kg/injection, schedule: Q01DX009 (ip), vehicle: saline 93 % of control | [19] 98 % of control | [20] 113 % of control

CN/N=C/c1ccc(O)c(OC)c1
inactive: [1] 95 % of control | [2] 90 % of control | [7] 91 % of control

CC(CCNc1ccc(NCCC(C)CC(C)(C)C)cc1)CC(C)(C)C (stereo unspecified)
inactive: [17] 98 % of control | dose: 100.0 mg/kg/injection, schedule: Q04DX003 (ip), vehicle: Klucel (hydroxypropylcellulose) (HPC) 110 % of control | [18] 101 % of control | dose: 200.0 mg/kg/injection, schedule: Q04DX003 (ip), vehicle: Klucel (hydroxypropylcellulose) (HPC) 102 % of control | dose: 400.0 mg/kg/injection, schedule: Q04DX003 (ip), vehicle: Klucel (hydroxypropylcellulose) (HPC) 96 % of control

O=C(N/N=C\c1cc(Br)cc(Br)c1O)N/N=C/c1cc(Br)cc(Br)c1O
inactive: [12] 108 % of control | [14] 95 % of control | [16] 92 % of control
